These results are taken from ChEMBL document CHEMBL4190350, “Synthesis, antimicrobial, antiquorum-sensing, antitumor and cytotoxic activities of new series of cyclopenta(hepta)[b]thiophene and fused cyclohepta[b]thiophene analogs” (Eur J Med Chem, 2017).

≈ marks a conversion by molar mass, not a printed value.

Data set [1] has as its system Escherichia coli. Put plainly: Antimicrobial activity against Escherichia coli incubated for 24 hrs by disc diffusion assay. Type of data set: functional. (In general: In agar diffusion tests the substance spreads into inoculated agar from a disc or well.)
Data set [2] deals with Aspergillus fumigatus. As to the kind of experiment: Antimicrobial activity against Aspergillus fumigatus incubated for 48 hrs by serial dilution method. Type of data set: functional.
For data set [3], the system named is Aspergillus fumigatus. As to the kind of experiment: Antimicrobial activity against Aspergillus fumigatus incubated for 48 hrs by disc diffusion assay. Type of data set: functional.
Data set [4] relates to Bacillus cereus. Put plainly: Antimicrobial activity against Bacillus cereus incubated for 24 hrs by disc diffusion assay. Type of data set: functional.
Data set [5] concerns Candida albicans. As to the kind of experiment: Antimicrobial activity against Candida albicans incubated for 48 hrs by disc diffusion assay. Type of data set: functional.
In data set [6] the test system is HT-29. As to the kind of experiment: Antitumor activity against human HT-29 cells assessed as inhibition of cell viability incubated for 48 hrs by MTT assay. The format is functional, cell-based. The following applies: HT-29, 48 h. In general terms: Tetrazolium assays rely on reduction of a dye to a coloured formazan, in cell work by metabolically active cells.

In data set [7] the test system is MCF7. As to the kind of experiment: Antitumor activity against human MCF7 cells assessed as inhibition of cell viability incubated for 48 hrs by MTT assay. Type of data set: functional, cell-based. Conditions: MCF7, 48 h.
The subject of data set [8] is HepG2. As to the kind of experiment: Antitumor activity against human HepG2 cells assessed as inhibition of cell viability incubated for 48 hrs by MTT assay. The format is functional, cell-based. Conditions: HepG2, 48 h.
Data set [9] is described as follows: Binding affinity to DNA (unknown origin) assessed as reduction in absorption maxima for methyl green/DNA complex incubated for 24 hrs by methyl green/DNA displacement assay.
The subject of data set [10] is Candida albicans. Put plainly: Antimicrobial activity against Candida albicans incubated for 48 hrs by serial dilution method. Type of data set: functional.
In data set [11] the test system is Staphylococcus aureus. As to the kind of experiment: Antimicrobial activity against Staphylococcus aureus incubated for 24 hrs by disc diffusion assay. The format is functional.
Data set [12] has as its system Chromobacterium violaceum. As to the kind of experiment: Inhibition of quorum sensing system in Chromobacterium violaceum ATCC 12472 assessed as inhibition of violacein production at 5 mg/mL incubated for 48 hrs.
In data set [13] the test system is Mus musculus. As to the kind of experiment: Toxicity in mouse EAC cells implanted Swiss albino mouse assessed as hemoglobin level at 0.5 mg for 9 days (reference value: 8.15 g/dl). Type of data set: organism-based. Conditions: in vivo, 216 h.
In data set [14] the test system is Ehrlich. As to the kind of experiment: Antitumor activity against mouse EAC cells implanted in Swiss albino mouse assessed as mean survival time at 0.5 mg for 9 days (reference value: 14.5 day). Type of data set: functional.
In data set [15] the test system is Mus musculus. Put plainly: Toxicity in mouse EAC cells implanted Swiss albino mouse assessed as WBC count at 0.5 mg for 9 days (reference value: 23.96 10^3/mm3). Type of data set: organism-based. The following applies: in vivo, 216 h.
For data set [16], the system named is WI-38. As to the kind of experiment: Cytotoxicity in human WI38 cells assessed as inhibition of cell viability incubated for 48 hrs by MTT assay. Conditions: WI-38, 48 h. The format is cell-based.
Data set [17] concerns Ehrlich. Put plainly: Antitumor activity against mouse EAC cells implanted in Swiss albino mouse assessed as increase in life span at 0.5 mg for 9 days relative to untreated control. The format is functional.
The subject of data set [18] is Mus musculus. Put plainly: Toxicity in mouse EAC cells implanted Swiss albino mouse assessed as RBC count at 0.5 mg for 9 days (reference value: 3.69 10^6/mm3). The format is organism-based. Conditions: in vivo, 216 h.
The subject of data set [19] is Ehrlich. As to the kind of experiment: Antitumor activity against mouse EAC cells implanted in Swiss albino mouse assessed as tumor volume at 0.5 mg for 9 days (reference value: 9.85 ml). The format is functional.
Data set [20] deals with Staphylococcus aureus. As to the kind of experiment: Antimicrobial activity against Staphylococcus aureus incubated for 24 hrs by serial dilution method. Type of data set: functional.
Data set [21] relates to Escherichia coli. As to the kind of experiment: Antimicrobial activity against Escherichia coli incubated for 24 hrs by serial dilution method. The format is functional.
Data set [22] concerns Bacillus cereus. Put plainly: Antimicrobial activity against Bacillus cereus incubated for 24 hrs by serial dilution method. The format is functional.

For the compound `CCOC(=O)c1c(NN=C(C(C)=O)C(C)=O)sc2c1CCCCC2`, the “diameter of the inhibition zone (DIZ)” value in [1] was determined as 6 mm; in [3], 30 mm; in data set [4] it was 14 mm; in data set [5], 20 mm; in data set [11], 8 mm. Besides, the MIC in [2] stood at 223 µM; in [10] it was 223 µM (≈ 78.1 µg/mL). Also, the IC50 in data set [6] is 53.3 µM; in [7], 21.4 µM; in data set [8], 30.6 µM; in data set [9], 37.1 µM. In addition, the INH in [12] was found to be 4 mm.

On to `OC(Cn1cncn1)(Cn1cncn1)c1ccc(F)cc1F` [FLUCONAZOLE], for which the minimal inhibitory concentration (MIC) in data set [2] is above 2500 µg/mL; in data set [10], 4080 µM (≈ 1250 µg/mL). Besides, the “diameter of the inhibition zone (DIZ)” value in data set [3] is below 2 mm; in data set [5] it was 22 mm.

As to `CCOC(=O)c1c(NN=C(C#N)C#N)sc2c1CCCCC2`, the “diameter of the inhibition zone (DIZ)” value in data set [1] is recorded as 7 mm; in [3], 9 mm; in data set [4], 11 mm; in [5] it was 11 mm; in data set [11] it was 19 mm. Besides, the Activity was found to be 12.54 g/dL in data set [13], 8.18 ×10³ /mm3 in [15], 5.09 ×10⁶ /mm3 in data set [18] and 2.7 mL in data set [19]. Also, the MST in data set [14] worked out at 42.5 days. Further, the IC50 in data set [16] was determined as 53.5 µM; in data set [6] it was 7.6 µM; in [7], 8.2 µM; in data set [8] it was 10.8 µM; in data set [9] it was 55.3 µM. Also, in data set [17], the increase in life span (ILS) stood at 193.1%. Moreover, the lowest concentration to inhibit growth in data set [20] (MIC) was 988 µM (≈ 312 µg/mL). Besides, in data set [12], the INH amounted to 9 mm.

With `CC1(C)S[C@@H]2[C@H](NC(=O)[C@H](N)c3ccccc3)C(=O)N2[C@H]1C(=O)O` [AMPICILLIN], the “diameter of the inhibition zone (DIZ)” value in data set [1] amounted to 28 mm; in [4] it was 12 mm; in data set [11] it was 20 mm. Moreover, the MIC in data set [21] came to 55.9 µM (≈ 19.5 µg/mL); in data set [20] it was 894 µM (≈ 313 µg/mL); in [22], 3580 µM (≈ 1250 µg/mL).

With `CC(=O)C1(C(=O)c2ccccc2)N=Nc2sc3c(c2C1=O)CCCCC3` (stereo unspecified), the “diameter of the inhibition zone (DIZ)” value in data set [1] is below 2 mm; in data set [3], below 2 mm; in [4] it was 16 mm; in [5], below 2 mm; in data set [11], 5 mm. The Activity stood at 12.92 g/dL in data set [13], 7.95 ×10³ /mm3 in [15], 5.16 ×10⁶ /mm3 in [18] and 2.55 mL in data set [19]. For the same compound, the MST in data set [14] was determined as 43.3 days. Further, the IC50 in [16] is 63.3 µM; in data set [6], 9.7 µM; in data set [7], 11.8 µM; in data set [8], 14.1 µM; in data set [9], 21.4 µM. Moreover, the ILS in data set [17] is recorded as 198.62%. Further, the INH in data set [12] was 11 mm. The same compound gave an MIC in data set [22] of 853 µM (≈ 313 µg/mL).

Turning to `CO/N=C(\C(=O)N[C@@H]1C(=O)N2C(C(=O)O)=C(COC(C)=O)CS[C@H]12)c1csc(N)n1` [CEFOTAXIME], the MIC in [21] was determined as 13.6 µM (≈ 6.19 µg/mL); in [20], 32.9 µM (≈ 15 µg/mL).

Regarding `NNC(=O)c1c(NN=C2C(N)=NN=C2N)sc2c1CCCCC2`, the “diameter of the inhibition zone (DIZ)” value in data set [1] is recorded as 19 mm; in data set [3], 32 mm; in data set [4], 30 mm; in data set [5], 24 mm; in [11] it was 28 mm. In addition, the MIC is 467 µM (≈ 156 µg/mL) in data set [21]; 234 µM in data set [2]; 467 µM (≈ 156 µg/mL) in data set [10]; 234 µM (≈ 78.1 µg/mL) in [20]; 234 µM (≈ 78.1 µg/mL) in data set [22]. In addition, the IC50 in [6] is 30.5 µM; in data set [7], 23.2 µM; in data set [8], 21.6 µM; in data set [9], 52.2 µM. Moreover, in [12], the INH came to 12 mm.

On to `CC(=O)C1(C(C)=O)N=Nc2sc3c(c2C1=O)CCCCC3`, for which the “diameter of the inhibition zone (DIZ)” value is below 2 mm in data set [1]; below 2 mm in data set [3]; 7 mm in data set [4]; 19 mm in [5]; below 2 mm in data set [11]. Further, the Activity in data set [13] stood at 12.04 g/dL; in data set [15], 9.11 ×10³ /mm3; in [18], 4.81 ×10⁶ /mm3; in data set [19], 3.3 mL. Moreover, in data set [14], the MST is 36 days. Besides, the IC50 came to 47.6 µM in data set [16]; 12.8 µM in data set [6]; 14.9 µM in data set [7]; 20.7 µM in data set [8]; 45.5 µM in [9]. For the same compound, the ILS in [17] came out at 148.27%. Moreover, in data set [10], the MIC worked out at 513 µM (≈ 156 µg/mL). The INH in data set [12] was found to be 3 mm.

For `CCOC(=O)C1(C(C)=O)N=Nc2sc3c(c2C1=O)CCCCC3` (stereo unspecified), the “diameter of the inhibition zone (DIZ)” value in data set [1] is reported as 17 mm; in data set [3], below 2 mm; in [4] it was 5 mm; in data set [5], 5 mm; in [11], below 2 mm. Also, in [21], the MIC came out at 934 µM (≈ 312 µg/mL). Also, the values for the IC50 in data set [6], in data set [7] and in [8] were 78.6 µM, 50.2 µM and 91.2 µM, respectively. The INH in [12] came out at 3 mm.

The compound GENTAMICIN displayed a minimum inhibitory concentration (MIC) in data set [22] of 0.31 µM.

As for `CCOC(=O)c1c(N/N=C(\C(C)=O)C(=O)c2ccccc2)sc2c1CCC2`, the “diameter of the inhibition zone (DIZ)” value is given as 7 mm in [1]; 2 mm in data set [3]; 14 mm in data set [4]; below 2 mm in data set [5]; 9 mm in data set [11]. Besides, the Activity in data set [13] came to 11.74 g/dL; in data set [15], 9.62 ×10³ /mm3; in [18] it was 4.79 ×10⁶ /mm3; in data set [19], 3.53 mL. In addition, the MST in [14] was found to be 33.5 days. For the same compound, the IC50 in data set [16] is 67.8 µM; in [6], 57.4 µM; in [7], 13.7 µM; in data set [8] it was 28.4 µM; in [9], 29.8 µM. The ILS in data set [17] is listed as 130.95%. Further, the INH in [12] was 3 mm.

For the compound `Nc1nc2sc3c(c2c(=O)n1N)CCCCC3`, the “diameter of the inhibition zone (DIZ)” value in [1] was 11 mm; in data set [3], below 2 mm; in data set [4] it was 17 mm; in data set [5], below 2 mm; in data set [11] it was 5 mm. Also, the values for the IC50 in data set [6], in data set [7] and in data set [8] were 51.6 µM, 35.8 µM and 82.7 µM, respectively. Besides, the INH in data set [12] is below 2 mm. The MIC in data set [22] amounted to 1250 µM (≈ 313 µg/mL).

As usually defined, the MIC is the lowest concentration found to suppress growth. For orientation: IC50 means the midpoint of a concentration-inhibition curve. By ILS is commonly meant how much longer treated animals lived than controls.
